Source: article PMC9653409, “Generative deep learning enables the discovery of a potent and selective RIPK1 inhibitor” (Nature Communications, 2022)
Values joined by “and” are separate entries in the source; they are usually repeats but may differ in a detail not shown here. Equal values may be shown once. Read-outs that look alike come from different tables or passages of the source.

Experiments:
[1] = system: TNFα; test: DSS-induced IBD mouse model: TNFα in cultured colon supernatant (ELISA); format: in vivo, C57BL/6 female mice
Procedure: (§1) DSS (3% w/v) was administered in drinking water ad libitum for 7 d (from day 0 to day 7). DSS solution was replaced three times on day 2, day 4, and day 6. […] Three mice in each group were killed at random on day 7, and distal colon tissues were collected for analysis. The mice weight and survival rate were recorded daily.
(§2) In the TNFα-induced SIRS model, at 6 h after TNFα injection, four mice in each group were killed at random, and the serums were collected, the serum concentrations of IL-1β and IL-6 were measured using ELISA kits (Neobioscience Technology) according to manufacturer’s instructions. […] The supernatant was collected by sequential centrifugation at 500 × g for 10 min and 3000 × g for 10 min. The concentrations of cytokines TNFα, IL-6, and IL-1β were measured using ELISA kits (Neobioscience Technology).

[2] = system: HT29 cells; test: TSZ-induced HT29 cell necroptosis model (CCK8); format: cell-based; details: Homo sapiens, HT-29
Procedure: Cell necroptosis protection assays were performed in 96-well cell culture plates. Cells were plated in each well and cultured at 37 °C overnight. […] The cell survival rate was determined using a CCK8 cell viability assay kit and CLARIOstar (v5.61). […] All experiments were performed at least two times, and each EC50 value was expressed as mean ± standard deviation (SD).

[3] = system: IL-1β; test: DSS-induced IBD mouse model: IL-1β in cultured colon supernatant (ELISA); format: in vivo, C57BL/6 female mice
Procedure: as §1, §2

[4] = system: TNFα-induced SIRS; test: TNFα-induced SIRS mouse model: survival; format: in vivo, C57BL/6 female mice
[5] = system: DSS-induced IBD; test: DSS-induced IBD mouse model: colon length; format: in vivo, C57BL/6 female mice
Procedure: as §1

[6] = system: DSS-induced IBD; test: DSS-induced IBD mouse model: body weight; format: in vivo, C57BL/6 female mice; details: for Body Weight (%): Figure 9a
Procedure: as §1

[7] = molecular target: T1, RIPK1 (Homo sapiens, UniProt Q13546); test: RIPK1 kinase assay, 33P-labeled ATP assay at Eurofins; format: biochemical
T1 sequence (Q13546 1-671): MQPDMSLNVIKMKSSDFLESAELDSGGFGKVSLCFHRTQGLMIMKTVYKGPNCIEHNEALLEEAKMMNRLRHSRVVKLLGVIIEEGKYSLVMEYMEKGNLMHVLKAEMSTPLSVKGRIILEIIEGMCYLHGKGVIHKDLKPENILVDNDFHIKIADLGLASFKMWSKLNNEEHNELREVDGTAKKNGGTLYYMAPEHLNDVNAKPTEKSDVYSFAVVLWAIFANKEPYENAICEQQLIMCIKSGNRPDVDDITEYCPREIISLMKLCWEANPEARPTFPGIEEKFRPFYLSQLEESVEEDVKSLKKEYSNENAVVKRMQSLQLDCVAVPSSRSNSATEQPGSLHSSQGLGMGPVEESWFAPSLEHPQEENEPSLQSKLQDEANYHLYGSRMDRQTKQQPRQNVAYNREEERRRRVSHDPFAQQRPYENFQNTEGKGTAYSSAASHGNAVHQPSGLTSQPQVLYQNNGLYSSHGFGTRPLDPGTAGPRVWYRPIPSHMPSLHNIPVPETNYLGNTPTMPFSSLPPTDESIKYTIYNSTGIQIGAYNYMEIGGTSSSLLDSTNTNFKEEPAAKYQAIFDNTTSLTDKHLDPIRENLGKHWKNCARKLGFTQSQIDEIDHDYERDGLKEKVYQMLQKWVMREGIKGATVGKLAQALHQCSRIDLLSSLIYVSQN
Procedure: In vitro kinase activity assays were conducted through the Kinase Profiling Services provided by Eurofins (Eurofins, France). The protocol for the RIPK1 assay is briefly described as follows (Protocols for other kinases are very similar and can be found in http://www.eurofins.com/pharmadiscovery). RIPK1 kinase was incubated with the test compound in assay buffer containing 8 mM MOPS (pH 7.0), 0.2 mM EDTA, 250 μM […], 10 mM magnesium acetate, and 10 μM [γ-33P]-ATP for 15 min at room temperature. The reaction was initiated by the addition of the Mg/ATP mixture. After incubation for 40 min at room temperature, and the reaction was stopped by the addition of 3% phosphoric acid. A 10 μL portion of the reaction mixture was then spotted onto a P30 filter mat and washed four times for 4 min in 0.425% phosphoric acid and once in methanol prior to drying and scintillation counting.

[8] = C57B6, mouse, in vivo

## CC(C)C(=O)Nc1nc2cc(-c3ccc4c(c3)c(C(=O)NC(C)c3ccccc3)cn4C)ccn2n1 (centres unmarked) [RI-962]
[1]; 40 mg/kg i.p., day 7
  content of TNFα in cultured colonic tissue supernatants: substantially reduced
[1]; Figure 9g, individual replicates 1-3
  TNFα: 139.9 pg/mL and 111.6 pg/mL and 109.1 pg/mL
[2]; 0.000056 μM
  viability at 56 pM: 20.2%
[2]; 0.000169 μM
  viability at 0.000169 µM: 21.7%
[2]; 0.000508 μM
  viability at 0.000508 µM: 21.7%
[2]; 0.001524 μM
  viability at 0.001524 µM: 23.4%
[2]; 0.004572 μM
  viability at 0.004572 µM: 36.3%
[2]; 0.013717 μM
  viability at 0.013717 µM: 78.8%
[2]; 0.041152 μM
  viability at 0.041152 µM: 96.7%
[2]; 0.123457 μM
  viability at 0.123457 µM: 109%
[2]; 0.370370 μM
  viability at 0.37037 µM: 110%
[2]; 1.111111 μM
  viability at 1.11111 µM: 107%
[2]; 3.333333 μM
  viability at 3.33333 µM: 109%
[2]; 10.000000 μM
  viability at 10 µM: 109%
[2]; HT29 treated with TSZ, 24 h, read-out: EC50
  EC50: 10 nM
[3]; 40 mg/kg i.p., day 7
  content of IL-1β in cultured colonic tissue supernatants: substantially reduced
[3]; Figure 9h, individual replicates 1-3
  IL-1β: 46.88 pg/mL and 42.98 pg/mL and 47.29 pg/mL
[4]; 40 mg/kg i.p. 15 min before mTNFα 300 μg/kg i.v.
  survival rate: 90%
[4]; 40 mg/kg i.p., per animal
  1 means death, 0 means survival: 1 and 0
[4]; 40 mg/kg i.p., per animal, time of death or end of observation
  Time after mTNFα: 24 h and 72 h
[5]; 40 mg/kg i.p. once a day, day 7
  DSS-induced shortening of colon length: markedly reduced
[5]; Figure 9b, individual replicates 1-3
  Colon Length: 52.0 mm and 54.0 mm (2×)
[6]; 40 mg/kg i.p. once a day
  loss of body weight: strongly ameliorated this loss of body weight
[6]; day 0
  Body Weight (%): 100%
[6]; day 1
  Body Weight (%): 97.11%
[6]; day 2
  Body Weight (%): 98.41%
[6]; day 3
  Body Weight (%): 102.3%
[6]; day 4
  Body Weight (%): 103.1%
[6]; day 5
  Body Weight (%): 104.6%
[6]; day 6
  Body Weight (%): 103.5%
[6]; day 7
  Body Weight (%): 103.5%
[6]; day 8
  Body Weight (%): 99.79%
[6]; day 9
  Body Weight (%): 98.12%
[6]; day 10
  Body Weight (%): 98.15%
[6]; day 11
  Body Weight (%): 100.8%
[6]; day 12
  Body Weight (%): 100.7%
[6]; day 13
  Body Weight (%): 102.5%
[6]; day 14
  Body Weight (%): 104.7%
[7]; 1 nM
  activity at 0.001 µM: 82.5%
[7]; 3 nM
  activity at 0.003 µM: 95%
[7]; 10 nM
  activity at 0.01 µM: 80.5%
[7]; 30 nM
  activity at 0.03 µM: 60.5%
[7]; 100 nM
  activity at 0.1 µM: 17.5%
[7]; 300 nM
  activity at 0.3 µM: -2%
[7]; 1000 nM
  activity at 1 µM: 11.5%
[7]; 3000 nM
  activity at 3 µM: 3.5%
[7]; 10 µM, read-out: Activity (%), RIPK1(h)
  activity at 10 µM: 0%
[7]; 10000 nM, read-out: Activity (%) Average
  activity at 10 µM: -3.5%
[7]; 33P-labeled ATP assay, read-out: IC50
  IC50: 35 nM
[8]
  doses well tolerated: up to 250 mg/kg
